This passage reports Ki results from patent US7319103B2, “Non-imidazole tertiary amines as histamine 3 receptor inhibitors for the treatment of cognitive and sleep disorders, obesity and other CNS disorders” (Athersys, Inc., priority 2004, dated 2008).

Each structure is given as a SMILES string.

What is called Ki is the dissociation constant of the complex between target and ligand, obtained from inhibition or displacement. Read a low Ki as higher affinity.

One test addresses T1, human H3 receptor (Homo sapiens, UniProt Q9Y5N1).
T1 construct: Expression of this receptor was provided by utilization of the RAGE methodology; endogenous in cells; host or cells: HT1080 (human fibrosarcoma) cells, H3 expression switched on by RAGE; co-transfected with chimeric G-protein Gqαi5
As to the kind of experiment: Radioligand competition binding assay, human H3 receptor (HT1080 cell membranes). Conditions: competition binding vs [3H]Nα-methylhistamine (~2 nM), membranes of HT1080 cells expressing human H3 receptor. The method, then:
(§1) Representative compounds of the present invention that were prepared by the procedures of the Examples were evaluated in binding assays against cells expressing the mouse and human H3 receptor by the following procedure.
An HT1080 cell line was produced that expresses the human H3 receptor. Expression of this receptor was provided by utilization of the RAGE methodology (Harrington et al., 2001) Nature Biotechol. 19:440-5. This cell line was transfected with the chimeric G-protein Gqαi5 (Conklin et al., 1993) Nature 363:274-6 to facilitate assessment of receptor activation through the analysis of intercellular Ca^++ levels using a fluorescence assay. The HT1080 cells expressing human histamine H3 receptor and Gqαi5 were grown in alpha-modified MEM containing 10% FBS, 3 ug/ml puromycin, 7 ug/ml blasticidin, and 3.2 uM methotrexate at 37° C. in 5% CO2/95% atmosphere.
(§2) Cells were washed with cold PBS buffer twice, scraped off the plates, and centrifuged at 1000×g for 5 minutes. Cells were resuspended in ice-cold buffer of 10 mM Tris, pH 7.4, 5 mM EDTA, protease inhibitor cocktail tablets (Roche Molecular Biochemicals) and incubated on ice for 10 minutes. The mixture was then homogenized with a dounce homogenizer or a polytron tissue grinder and centrifuged at 1000×g for 10 min at 4° C. The supernatant was centrifuged at 32,000×g for 30 min at 4° C. The membrane pellet was resuspended in a buffer of 50 mM Tris, pH 7.4 with protease inhibitor cocktail tablets and stored at −80° C. until use. Protein concentration was determined by the methods of Bradford.
(§3) Membranes were homogenized in buffer containing 50 mM Tris/HCl, 1 mM EDTA pH 7.4, and protease inhibitor cocktail tablets. Dissociation constants of radioligand (KD values) and maximum binding sites (Bmax) were determined in saturation binding experiments. Ki and IC50 were determined in competition binding assays using a fixed amount of radioligand.
(§4) Saturation binding assays were carried out in 96-well polypropylene plates in triplicate or quadruplicate. Reaction mixtures contained 100 μl of membrane suspension (˜100 μg/well), 50 μl of 4% DMSO, 50 μl of increasing amounts of [^3H]N^α-methylhistamine (final concentration of 0.01-20 nM). Nonspecific binding was defined with 10 uM clobenpropit. Competition binding assays were performed in a reaction mixture containing 100 μl of membrane suspension, 50 μl of [H]N^α-methylhistamine (final concentration of ˜2 nM), and 50 μl compounds. […] Incubations were carried out for 1.5 hours at room temperature. Reactions were terminated by rapid filtration over glass fibre GF/C filters (Perkin Elmers, MA) that had been presoaked in 0.3% PEI, using a Brandel cell harvester. The filters were washed with 500 ml of ice-cold buffer containing 50 mM Tris-HCl, pH 7.4, and were subsequently dried, impregnated with Meltilex wax scintillate (Perkin Elmers, MA) and counted with a Betaplate scintillation counter (Perkin Elmers, MA).
(§5) All data were analyzed by nonlinear least square curve fitting using Prism 4.0 software. The KD for [^3H]N^α-methylhistamine and the Bmax were derived from equation RL=RfL/(KD+L). RL is concentration of receptor-bound ligand at equilibrium, L is the free ligand concentration, Rf is the total receptor concentration. For competition binding experiments, IC50 (the concentration of compound producing 50% inhibition of specific binding) was derived from fitting to a 4-parameter logistic equation. Apparent Ki values were calculated using the Cheng-Prussof equation of Ki=IC50/(1+(L)/Kd), L is the ligand concentration. Agonist stimulation and antagonist inhibition in FLIPR were fitted to sigmoidal dose response using equation Y=Bottom+(Top-Bottom)/(1+10^((LogEC50-X))), X is the logarithm of concentration of compounds. Y is the response.

In the next test the target is mouse H3 receptor (Mus musculus, UniProt P58406). Kind of test: Radioligand competition binding assay, mouse H3 receptor. As to conditions: competition binding vs [3H]Nα-methylhistamine (~2 nM), membranes of cells expressing mouse H3 receptor. The method, then: as §1, §2, §3, §4, §5
On the technique in general: Loss of bound radioactivity is the signal in a displacement assay; it reports binding, not function.

Sequence of mouse H3 receptor (P58406 whole entry): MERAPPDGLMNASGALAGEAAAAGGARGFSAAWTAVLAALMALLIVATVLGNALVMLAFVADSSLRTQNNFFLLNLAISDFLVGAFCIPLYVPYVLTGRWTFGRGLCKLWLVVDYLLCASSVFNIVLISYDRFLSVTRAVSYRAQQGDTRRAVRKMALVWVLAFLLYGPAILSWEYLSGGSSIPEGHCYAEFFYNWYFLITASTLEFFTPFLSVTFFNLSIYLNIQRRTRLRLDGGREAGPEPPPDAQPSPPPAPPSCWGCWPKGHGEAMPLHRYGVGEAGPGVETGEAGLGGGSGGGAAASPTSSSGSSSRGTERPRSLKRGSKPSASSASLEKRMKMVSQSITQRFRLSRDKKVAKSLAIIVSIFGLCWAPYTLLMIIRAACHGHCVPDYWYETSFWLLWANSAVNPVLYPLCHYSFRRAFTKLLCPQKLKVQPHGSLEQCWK
T1 sequence (Q9Y5N1 whole entry): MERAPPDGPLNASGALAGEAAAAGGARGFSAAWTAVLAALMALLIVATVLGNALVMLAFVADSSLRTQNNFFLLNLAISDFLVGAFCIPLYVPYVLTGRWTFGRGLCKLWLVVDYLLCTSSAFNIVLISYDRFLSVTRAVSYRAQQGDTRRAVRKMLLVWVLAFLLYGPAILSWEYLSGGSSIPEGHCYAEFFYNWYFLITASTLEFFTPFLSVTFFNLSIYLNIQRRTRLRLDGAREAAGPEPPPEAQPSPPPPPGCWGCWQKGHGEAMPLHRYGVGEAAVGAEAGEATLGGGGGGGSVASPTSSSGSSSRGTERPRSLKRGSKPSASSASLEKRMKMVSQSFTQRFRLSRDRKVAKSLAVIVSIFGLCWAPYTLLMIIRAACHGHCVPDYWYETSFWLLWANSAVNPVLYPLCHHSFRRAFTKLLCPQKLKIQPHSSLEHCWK

For `CC1CCCN1CCc1cc2cc(-c3c4c(nc5ccnn35)CCCC4)ccc2o1` (stereo not drawn) [9-{2-[2-(2-Methyl-pyrrolidin-1-yl)-ethyl]-benzofuran-5-yl}-5,6,7,8-tetrahydro-pyrazolo[5,1-b]quinazoline], the Ki on human H3 receptor is under 50 nM; at mouse H3 receptor, under 500 nM.
Consider `C[C@@H]1CCCN1CCCOc1ccc(-c2c3c(nc4ccnn24)CCCC3)cc1` [9-{4-[3-(2-(R)-Methyl-pyrrolidin-1-yl)-propoxy]-phenyl}-5,6,7,8-tetrahydro-pyrazolo[5,1-b]quinazoline], for which the Ki on human H3 receptor and at mouse H3 receptor was under 50 nM each time.
Take `CC1CCCN1CCCOc1ccc(-c2c3c(nc4ccnn24)CCCC3)cc1` (stereo not drawn) [9-{4-[3-(2-Methyl-pyrrolidin-1-yl)-propoxy]-phenyl}-5,6,7,8-tetrahydro-pyrazolo[5,1-b]quinazoline]: the Ki on human H3 receptor and at mouse H3 receptor was under 50 nM throughout.
For `c1cc(OCCCN2CCCCC2)cc(-c2c3c(nc4ccnn24)CCCCC3)c1` [10-[3-(3-Piperidin-1-yl-propoxy)-phenyl]-6,7,8,9-tetrahydro-5H-1,4,10a-triaza-cyclohepta[f]indene], the Ki is under 500 nM at human H3 receptor and under 5000 nM on mouse H3 receptor.
`c1cc(OCCCN2CCCC2)cc(-c2c3c(nc4ccnn24)CCCCC3)c1` [10-[3-(3-Pyrrolidin-1-yl-propoxy)-phenyl]-6,7,8,9-tetrahydro-5H-1,4,10a-triaza-cyclohepta[f]indene]: the Ki at human H3 receptor is under 500 nM; at mouse H3 receptor it was under 5000 nM.
`c1cc2nc3c(c(-c4ccc(OCCCN5CCCCC5)cc4)n2n1)CCCCC3` [10-[4-(3-Piperidin-1-yl-propoxy)-phenyl]-6,7,8,9-tetrahydro-5H-1,4,10a-triaza-cyclohepta[f]indene]: the Ki on human H3 receptor and at mouse H3 receptor was under 50 nM throughout.
As to `C[C@@H]1CC[C@@H](C)N1CCCOc1ccc(-c2c3c(nc4ccnn24)CCCCC3)cc1` [10-{4-[3-(2,5-(R,R)-Dimethyl-pyrrolidin-1-yl)-propoxy]-phenyl}-6,7,8,9-tetrahydro-5H-1,4,10a-triaza-cyclohepta[f]indene], the Ki at human H3 receptor is under 50 nM; at mouse H3 receptor, under 500 nM.
Take `C[C@@H]1CCCN1CCCOc1ccc(-c2c3c(nc4ccnn24)CCCCC3)cc1` [10-{4-[3-(2-(R)-Methyl-pyrrolidin-1-yl)-propoxy]-phenyl}-6,7,8,9-tetrahydro-5H-1,4,10a-triaza-cyclohepta[f]indene]: the Ki on human H3 receptor and at mouse H3 receptor was under 50 nM each time.
`CC1CCCN1CCCOc1ccc(-c2c3c(nc4ccnn24)CCCCC3)cc1` (stereo not drawn) [10-{4-[3-(2-Methyl-pyrrolidin-1-yl)-propoxy]-phenyl}-6,7,8,9-tetrahydro-5H-1,4,10a-triaza-cyclohepta[f]indene]: the Ki on human H3 receptor and on mouse H3 receptor was under 50 nM throughout.
With `c1ccc2c(-c3ccc(OCCCN4CCCC4)cc3)c3c(nc2c1)CCCCC3` [11-[4-(3-Pyrrolidin-1-yl-propoxy)-phenyl]-7,8,9,10-tetrahydro-6H-cyclohepta[b]quinoline], the Ki on human H3 receptor is under 50 nM; at mouse H3 receptor it was under 500 nM.
As to `CN(C)[C@@H]1CCN(CCc2cc3cc(-c4c5c(nc6ccnn46)CCC5)ccc3o2)C1` [(1-{2-[5-(6,7-Dihydro-5H-1,4,8a-triaza-s-indacen-8-yl)-benzofuran-2-yl]-ethyl}-pyrrolidin-3-yl)-(R)-dimethyl-amine], the Ki on human H3 receptor and on mouse H3 receptor was under 500 nM in each case.
As for `CCN(CC)CCCOc1ccc(-c2c3c(nc4ccnn24)CCCCC3)cc1` [Diethyl-{3-[4-(6,7,8,9-tetrahydro-5H-1,4,10a-triaza-cyclohepta[f]inden-10-yl)-phenoxy]-propyl}-amine], the results for the Ki on human H3 receptor and at mouse H3 receptor were under 50 nM and under 500 nM, respectively.
As to `CN(C)CCCOc1ccc(-c2c3c(nc4ccnn24)CCCC3)cc1` [Dimethyl-{3-[4-(5,6,7,8-tetrahydro-pyrazolo[5,1-b]quinazolin-9-yl)-phenoxy]-propyl}-amine], the results for the Ki at human H3 receptor and on mouse H3 receptor were under 50 nM and under 500 nM, respectively.
For the compound `CN(CCCOc1ccc(-c2c3c(nc4ccnn24)CCCCC3)cc1)Cc1ccco1` [Furan-2-ylmethyl-methyl-{3-[4-(6,7,8,9-tetrahydro-5H-1,4,10a-triaza-cyclohepta[f]inden-10-yl)-phenoxy]-propyl}-amine], the Ki on human H3 receptor was under 5000 nM; on mouse H3 receptor, under 500 nM.
On to `CN(C)CCCOc1ccc(-c2c3c(nc4ccnn24)CCC3)cc1` [{3-[4-(6,7-Dihydro-5H-1,4,8a-triaza-s-indacen-8-yl)-phenoxy]-propyl}-dimethyl-amine], for which the values for the Ki at human H3 receptor and on mouse H3 receptor were under 50 nM and under 500 nM, respectively.
